IC50 data for 27 compounds are collected here from patent US20100113460A1, “Organic Compounds” (Givaudan SA, priority 2007, published 2010).

Molecules are shown by their SMILES. Where two headings read alike, the source gives them in different places.

The target of this series is T1, CYP2A13 (Homo sapiens, UniProt Q16696).
T1 sequence (Q16696 1-494): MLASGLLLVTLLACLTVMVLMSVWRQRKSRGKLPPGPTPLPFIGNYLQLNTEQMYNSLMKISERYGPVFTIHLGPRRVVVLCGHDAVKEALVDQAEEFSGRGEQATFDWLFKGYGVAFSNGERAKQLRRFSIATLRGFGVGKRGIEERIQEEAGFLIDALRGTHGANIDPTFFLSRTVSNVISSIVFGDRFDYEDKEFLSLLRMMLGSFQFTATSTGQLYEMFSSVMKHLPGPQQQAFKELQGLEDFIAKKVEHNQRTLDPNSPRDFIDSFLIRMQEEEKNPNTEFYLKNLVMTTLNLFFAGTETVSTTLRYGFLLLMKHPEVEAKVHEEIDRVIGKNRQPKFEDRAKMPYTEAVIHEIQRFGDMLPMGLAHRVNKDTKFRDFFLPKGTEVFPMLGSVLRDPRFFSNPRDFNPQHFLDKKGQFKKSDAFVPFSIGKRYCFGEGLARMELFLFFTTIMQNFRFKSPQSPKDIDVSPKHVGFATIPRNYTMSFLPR
The series can be described thus: CYP2A13 inhibition, coumarin to 7-hydroxy-coumarin (Umbelliferone) fluorescence assay in microsomes.

Description: Compounds that inhibit the activity of CYP2A13 are identified by using a standard reaction established for the enzyme. A known substrate is coumarin, and the product of the enzymatic reaction is 7-hydroxy-coumarin (Umbelliferone) which is strongly fluorescent. When a compound is added to the standard reaction and the formation of Umbelliferone is decreased, the compound is identified as an inhibitor, which can also be a competitive substrate of the enzyme. The compound is used at various concentrations and the concentration-dependent decrease in Umbelliferone formation allows to determine the concentration where the activity of the enzyme is reduced to the 50% level (IC50 value).
A test compound (details see Table 1) was incubated with CYP2A13 in the presence of a cytochrome P450 reductase. CYP2A13 and P450 reductase were employed in form of microsomes. […] Preferably, the two enzymes are coexpressed in the same insect cells and microsomes prepared which contain both enzymes. […] An MOI of 4 for recombinant CYP2A13 baculovirus combined with an MOI of 3.5 for recombinant P450 reductase baculovirus routinely produced microsomes with considerable activity.
Microsomes were used which contained 7 pmoles CYP2A13. […] The concentration of the standard substrate coumarin was 0.006 mM. […] The mixture was incubated for 10 min at 37° C. prior to the initiation of the enzymatic reaction by the addition of 0.005 ml of a solution of 50 mM NADPH in water. The final total volume was 0.2 ml, which is suitable for microtiter plate measurements. The samples were incubated for 60 min at 37° C. After 60 min, the enzymatic reaction was stopped by the addition of 0.02 ml cold 50% trichloroacetic acid (TCA) and incubated at 4° C. for 15 min. 0.005 ml of a solution of 50 mM NADPH in water was added to the control reaction which corresponds to the reaction without test compound and without NADPH, and as a consequence, no Umbelliferone was formed. Denatured proteins and other insoluble parts were separated by centrifugation (10 min, 560×g, room-temperature).
The samples were analysed spectrofluorometrically which allows to detect the formation of Umbelliferone as the enzymatic product of coumarin at an excitation wavelength of 340 nm and an emission wavelength of 480 nm.

By IC50 is commonly meant the midpoint of a concentration-inhibition curve. With `c1ncc2c(n1)CCCCCCCC2` [Compound ID 26, 5,6,7,8,9,10,11,12-octahydrocyclodeca[d]pyrimidine], it took 3.7 µM to reach half-maximal inhibition (IC50).

As to `CCCCCC1C(=O)C(C)CC1C(=O)OC` (stereo not drawn) [Compound ID 50, Methyl 4-methyl-3-oxo-2-pentylcyclopentanecarboxylate], inhibition was half-maximal at 7.8 µM (IC50).

`CC/C=C\CC1C(=O)CCC1C` (stereo not drawn) [Compound ID 17] displayed an IC50 of 2.8 µM.

In turn, `CC/C=C\C[C@@H]1C(=O)CC[C@@H]1CC(=O)OC` [Compound ID 25, (Z)-methyl 2-(3-oxo-2-(pent-2-enyl)cyclopentyl)acetate] gave a half-inhibitory concentration (IC50) of 3.5 µM.

As to `CCCCCC12CC1(C)CCC2=O` (stereo not drawn) [Compound ID 8], half-maximal inhibition (IC50) required 1.4 µM.

As to `CCCCCC1C(=O)CCC1C` (stereo not drawn) [Compound ID 32, 3-methyl-2-pentylcyclopentanone], inhibition was half-maximal at 4.8 µM (IC50).

With `CC1CCC2(CCC(=O)O2)CC1` (stereo not drawn) [Compound ID 69, 8-methyl-1-oxaspiro[4.5]decan-2-one], the 50% inhibitory concentration (IC50) turned out to be 17.6 µM.

In turn, `c1cnc2c(c1)CCCCCCCCCC2` [Compound ID 24, 5,6,7,8,9,10,11,12,13,14-decahydrocyclododeca[b]pyridine] yielded an IC50 of 3.5 µM.

Compound `c1cn2c(n1)CCCCCCCCCC2` [Compound ID 53, 5,6,7,8,9,10,11,12,13,14-decahydroimidazo[1,2-a][1]azacyclododecine] came in with an IC50 of 8.5 µM.

With `OCCCCn1ccnc1` [Compound ID 68, 4-(1H-imidazol-1-yl)butan-1-ol], the IC50 turned out to be 16.1 µM.

Consider `CCCCC/C=C/CC1CCCC1=O` (stereo not drawn) [Compound ID 18, (E)-2-(oct-2-enyl)cyclopentanone], for which the IC50 came out at 2.8 µM.

Take `N#CCCCCn1ccnc1` [Compound ID 55, 5-(1H-imidazol-1-yl)pentanenitrile]: the IC50 stood at 9.5 µM.

`O=C1CCC2CCCCC2O1` (stereo not drawn) [Compound ID 45, octahydrocoumarin] showed an IC50 of 6.6 µM.

As for `CCC=CCCC1(C)CCC(=O)O1` (mixture of isomers) [Compound ID 62, (E/Z)-5-(hex-3-enyl)-5-methyldihydrofuran-2(3H)-one], the 50% inhibitory concentration (IC50) amounted to 12.5 µM.

As for `O=C1CCCCCCCCCCCN1` [Compound ID 36, azacyclotridecan-2-one], the IC50 came to 5.2 µM.

In the case of `c1nc2c([nH]1)CCCCCCCCC2` [Compound ID 35, 1,4,5,6,7,8,9,10,11,12-decahydrocycloundeca[d]imidazole], 5 µM corresponded to half-maximal inhibition (IC50).

Regarding `CCCCCC1=CCCC1=O` [Compound ID 51, 2-pentylcyclopent-2-enone], half-maximal inhibition (IC50) was put at 8.3 µM.

Compound `CCC1CCC2(CCC(=O)O2)CC1` (stereo not drawn) [Compound ID 29, 8-ethyl-1-oxaspiro[4.5]decan-2-one] showed an IC50 of 4.3 µM.

Compound `c1nc2c(o1)CCCCCCCCC2` [Compound ID 14, 5,6,7,8,9,10,11,12-octahydro-4H-cycloundeca[d]oxazole] yielded an IC50 of 2 µM.

`CCCCCCC1CCCC1=O` (stereo not drawn) [Compound ID 27, 2-hexylcyclopentanone]: the IC50 worked out at 4.2 µM.

In turn, `CCOC(=O)CCCn1ccnc1` [Compound ID 49, ethyl 4-(1H-imidazol-1-yl)butanoate] came in with an IC50 of 7.7 µM.

With `CCCCCCC1=CCCC1=O` [Compound ID 30, 2-hexylcyclopent-2-enone], inhibition was half-maximal at 4.5 µM (IC50).

Turning to `CCCCCC1=C(C)CCC1=O` [Compound ID 7, 2-pentyl-3-methylcyclopent-2-enone], 1.2 µM corresponded to half-maximal inhibition (IC50).

In turn, `CC/C=C\CCOC(=O)C1CCCC1=O` (stereo not drawn) [Compound ID 61] had an IC50 of 12.7 µM.

Regarding `O=C1CCCCCCCCCCN1` [Compound ID 65, azacyclododecan-2-one], half-maximal inhibition (IC50) required 15.6 µM.

Consider `c1nnc2n1CCCCCCCCCCC2` [Compound ID 43, 6,7,8,9,10,11,12,13,14,15-decahydro-5H-[1,2,4]triazolo[4,3-a][1]azacyclotridecine], for which the IC50 is 6.3 µM.

Consider `CC(C)=CCn1ccnc1` [Compound ID 40, 1-(3-methylbut-2-enyl)-1H-imidazole], for which the IC50 (read-out: CYP2A13 inhibitor activity IC50, substrate coumarin 0.006 mM, 60 min at 37° C.) amounted to 5.7 µM.
